Like-named read-outs stand apart in the source and are kept apart here.
Test system: HCV replicon
Experiment: HCV replicon luciferase reporter assay
Type: cell-based
Conditions: Table 5, read-out: IC50
Summary of the method: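 Replicon-bearing dividing cells seeded at 5,000–7,500 cells/well, grown 24 h at 37° C/5% CO2, then exposed to test compound at various concentrations for a further 24–48 h. Replication/translation read by luciferase reporter; IC50 taken as compound amount giving 50% reduction in luciferase activity.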

| Compound | IC50 (Hepatitis C virus) [µM] | IC50 [µM] |
| --- | --- | --- |
| CC(C)(C)OC(=O)N[C@H](C(=O)NCCNc1nsc2ccc(Cl)cc12)c1ccccc1 [Compound 425, (S)-tert-butyl 2-(2-(5-chlorobenzo[d]isothiazol-3-ylamino)ethylamino)-2-oxo-1-phenylethylcarbamate] | < 5 |  |
| CC(C)NC(=O)c1ccc(C(=O)NCCNc2nsc3ccccc23)cc1 [Compound 426, N^1-(2-(benzo[d]isothiazol-3-ylamino)ethyl)-N^4-isopropylterephthalamide] | < 5 |  |
| O=C(NCCNc1nsc2ccccc12)c1ccc(C(=O)NC2CC2)cc1 [Compound 427, N^1-(2-(benzo[d]isothiazol-3-ylamino)ethyl)-N^4-cyclopropylterephthalamide] | < 5 |  |
| CCCNC(=O)c1cccc(C(=O)NCCNc2nsc3ccccc23)c1 [Compound 428, N^1-(2-(benzo[d]isothiazol-3-ylamino)ethyl)-N^3-propylisophthalamide] | < 5 |  |
| CCCCNC(=O)c1cccc(C(=O)NCCNc2nsc3ccccc23)c1 [Compound 429, N^1-(2-(benzo[d]isothiazol-3-ylamino)ethyl)-N^3-butylisophthalamide] | < 5 |  |
| CC(C)NC(=O)c1cccc(C(=O)NCCNc2nsc3ccccc23)c1 [Compound 430, N^1-(2-(benzo[d]isothiazol-3-ylamino)ethyl)-N^3-isopropylisophthalamide] | < 5 |  |
| O=C(NCCNc1nsc2ccccc12)c1cccc(C(=O)NC2CC2)c1 [Compound 431, N^1-(2-(benzo[d]isothiazol-3-ylamino)ethyl)-N^3-cyclopropylisophthalamide] | < 5 |  |
| COc1ccc2[nH]c(C(=O)NCCNc3nsc4ccc(Cl)cc34)cc2c1 [Compound 432, N-(2-(5-chlorobenzo[d]isothiazol-3-ylamino)ethyl)-5-methoxy-1H-indole-2-carboxamide] | < 5 |  |
| O=C(NCCCNc1nsc2ccccc12)c1cc2ccc([N+](=O)[O-])cc2s1 [Compound 433, N-(3-(benzo[d]isothiazol-3-ylamino)propyl)-6-nitrobenzo[b]thiophene-2-carboxamide] | < 5 |  |
| c1ccc2c(NCCCNc3nsc4ccccc34)nsc2c1 [Compound 434, N^1,N^3-di(benzo[d]isothiazol-3-yl)propane-1,3-diamine] | < 5 |  |
| COc1cccc2cc(C(=O)NCCCNc3nsc4ccccc34)oc12 [Compound 435, N-(3-(benzo[d]isothiazol-3-ylamino)propyl)-7-methoxybenzofuran-2-carboxamide] | < 5 |  |
| O=C(NCCCNc1nsc2ccccc12)c1cc2cc(Cl)ccc2o1 [Compound 436, N-(3-(benzo[d]isothiazol-3-ylamino)propyl)-5-chlorobenzofuran-2-carboxamide] | < 5 |  |
| COc1ccc2oc(C(=O)NCCCNc3nsc4ccccc34)cc2c1 [Compound 437, N-(3-(benzo[d]isothiazol-3-ylamino)propyl)-5-methoxybenzofuran-2-carboxamide] | < 5 |  |
| COc1ccc(-c2cccc(C(=O)NCCCNc3nsc4ccccc34)n2)c(OC)c1 [Compound 438, N-(3-(benzo[d]isothiazol-3-ylamino)propyl)-6-(2,4-dimethoxyphenyl)picolinamide] | < 5 |  |
| O=C(NCCCNc1nsc2ccccc12)c1cc2ccc([N+](=O)[O-])cc2o1 [Compound 439, N-(3-(benzo[d]isothiazol-3-ylamino)propyl)-6-nitrobenzofuran-2-carboxamide] | < 5 |  |
| CS(=O)(=O)c1ccc(-c2cccc(C(=O)NCCCNc3nsc4ccccc34)n2)cc1 [Compound 440, N-(3-(benzo[d]isothiazol-3-ylamino)propyl)-6-(4-(methylsulfonyl)phenyl)picolinamide] | < 5 |  |
| CC1=NN(c2ccc(C(=O)NCCNc3nsc4ccccc34)cc2)C(=O)C1 [Compound 441, N-(2-(benzo[d]isothiazol-3-ylamino)ethyl)-4-(3-methyl-5-oxo-4,5-dihydropyrazol-1-yl)benzamide] | > 5 |  |
| O=C(NCCCNc1nsc2ccccc12)c1ccc(Br)nc1 [Compound 443, N-(3-(benzo[d]isothiazol-3-ylamino)propyl)-6-bromonicotinamide] | < 5 |  |
| CN(C)CCCNc1cccc(C(=O)NCCCNc2nsc3ccccc23)n1 [Compound 447, N-(3-(benzo[d]isothiazol-3-ylamino)propyl)-6-(3-(dimethylamino)propylamino)picolinamide] | < 5 |  |
| CCCCNc1cccc(C(=O)NCCCNc2nsc3ccccc23)n1 [Compound 448, N-(3-(benzo[d]isothiazol-3-ylamino)propyl)-6-(butylamino)picolinamide] | > 5 |  |
| O=C(NCCCNc1nsc2ccccc12)c1ccc2[nH]cnc2c1 [Compound 449, N-(3-(benzo[d]isothiazol-3-ylamino)propyl)-1H-benzo[d]imidazole-5-carboxamide] | > 5 |  |
| O=C(NCCCNc1nsc2ccccc12)c1ccc2[nH]ccc2c1 [Compound 450, N-(3-(benzo[d]isothiazol-3-ylamino)propyl)-1H-indole-5-carboxamide] | < 5 |  |

| Compound | IC50 (Hepatitis C virus) [µM] | IC50 [µM] |
| --- | --- | --- |
| O=C(NCCCNc1nsc2ccccc12)c1ccc(O)nc1 [Compound 451, N-(3-(benzo[d]isothiazol-3-ylamino)propyl)-6-hydroxynicotinamide] | > 5 |  |
| O=C(NCCCNc1nsc2ccccc12)c1cnc(O)c(Cl)c1 [Compound 452, N-(3-(benzo[d]isothiazol-3-ylamino)propyl)-5-chloro-6-hydroxynicotinamide] | > 5 |  |
| CCCCC(=O)Nc1ccc2oc(C(=O)NCCCNc3nsc4ccccc34)cc2c1 [Compound 453, N-(3-(benzo[d]isothiazol-3-ylamino)propyl)-5-pentanamidobenzofuran-2-carboxamide] | < 5 |  |
| CCCC(=O)Nc1ccc2oc(C(=O)NCCCNc3nsc4ccccc34)cc2c1 [Compound 454, N-(3-(benzo[d]isothiazol-3-ylamino)propyl)-5-butyramidobenzofuran-2-carboxamide] | < 5 |  |
| CCCNC(=O)Nc1ccc2oc(C(=O)NCCCNc3nsc4ccccc34)cc2c1 [Compound 455, N-(3-(benzo[d]isothiazol-3-ylamino)propyl)-5-(3-propylureido)benzofuran-2-carboxamide] | < 5 |  |
| CCCCC(=O)Nc1ccc2sc(C(=O)NCCCNc3nsc4ccccc34)cc2c1 [Compound 456, N-(3-(benzo[d]isothiazol-3-ylamino)propyl)-5-pentanamidobenzo[b]thiophene-2-carboxamide] | < 5 |  |
| CCCC(=O)Nc1ccc2sc(C(=O)NCCCNc3nsc4ccccc34)cc2c1 [Compound 457, N-(3-(benzo[d]isothiazol-3-ylamino)propyl)-5-butyramidobenzo[b]thiophene-2-carboxamide] | < 5 |  |
| CCCNC(=O)Nc1ccc2sc(C(=O)NCCCNc3nsc4ccccc34)cc2c1 [Compound 458, N-(3-(benzo[d]isothiazol-3-ylamino)propyl)-5-(3-propylureido)benzo[b]thiophene-2-carboxamide] | > 5 |  |
| Nc1ccc2sc(C(=O)NCCCNc3nsc4ccccc34)cc2c1 [Compound 459, 5-amino-N-(3-(benzo[d]isothiazol-3-ylamino)propyl)benzo[b]thiophene-2-carboxamide] | < 5 |  |
| COc1ccc(-c2ccc(CN(C)CCCNc3nsc4ccccc34)cc2)cc1 [Compound 490, N^1-(benzo[d]isothiazol-3-yl)-N^3-((4′-methoxybiphenyl-4-yl)methyl)-N^3-methylpropane-1,3-diamine] | < 5 |  |
| COc1ccc(-c2ccc(C(=O)NCCCNc3nsc4cccc(C(F)(F)F)c34)cc2)cc1 [Compound 500, 4′-methoxy-N-(3-(4-(trifluoromethyl)benzo[d]isothiazol-3-ylamino)propyl)biphenyl-4-carboxamide] | > 5 |  |
| CC(C)(C)NS(=O)(=O)c1cccc2snc(NCCCN)c12 [Compound 506, 3-(3-aminopropylamino)-N-tert-butylbenzo[d]isothiazole-4-sulfonamide] |  | > 5 |
| CC(C)(C)NS(=O)(=O)c1cccc2c(NCCCN)nsc12 [Compound 507, 3-(3-aminopropylamino)-N-tert-butylbenzo[d]isothiazole-7-sulfonamide] |  | > 5 |
| CC(C)(C)NS(=O)(=O)c1ccc2c(NCCCN)nsc2c1 [Compound 508, 3-(3-aminopropylamino)-N-tert-butylbenzo[d]isothiazole-6-sulfonamide] |  | > 5 |
| COc1ccc(CNS(=O)(=O)c2ccc3snc(NCCCNC(=O)c4ccc(-c5ccc(OC)cc5)cc4)c3c2)cc1 [Compound 515, 4′-methoxy-N-(3-(5-(N-(4-methoxybenzyl)sulfamoyl)benzo[d]isothiazol-3-ylamino)propyl)biphenyl-4-carboxamide] | > 5 |  |
| O=C(NCCCNc1nsc2ncccc12)C1CCN(c2nccc(C(F)(F)F)n2)CC1 [Compound 533, N-(3-(isothiazolo[5,4-b]pyridin-3-ylamino)propyl)-1-(4-(trifluoromethyl)pyrimidin-2-yl)piperidine-4-carboxamide] | < 5 |  |
| CC(C)(C)OC(=O)N[C@H](C(=O)NCCNc1nsc2ccccc12)c1ccccc1 [Entry 11, (S)-tert-Butyl 2-(2-(Benzo[d]isothiazol-3-ylamino)ethylamino)-2-oxo-1-phenylethylcarbamate] | < 5 |  |
| O=C(c1ccccc1)c1cccnc1C(=O)NCCNc1nsc2ccccc12 [Entry 12, N-(2-(Benzo[d]isothiazol-3-ylamino)ethyl)-3-benzoylpicolinamide] | < 5 |  |
| Cc1cccc(C(=O)NCCNc2nsc3ccccc23)n1 [Entry 13, N-(2-(Benzo[d]isothiazol-3-ylamino)ethyl)-6-methylpicolinamide] | > 5 |  |
| COc1ccc(C(=O)NCCNc2nsc3ccccc23)cc1 [Entry 14, N-(2-(Benzo[d]isothiazol-3-ylamino)ethyl)-4-methoxybenzamide] | < 5 |  |
| CC(C)[C@H](NC(=O)OC(C)(C)C)C(=O)NCCNc1nsc2ccccc12 [Entry 18, (S)-tert-Butyl 1-(2-(Benzo[d]isothiazol-3-ylamino)ethylamino)-3-methyl-1-oxobutan-2-ylcarbamate] | < 5 |  |
